Test results reported in patent US20190192548A1, “USE OF CYCLIC PHOSPHATE SUBSTITUTED NUCLEOSIDE DERIVATIVESFOR THE TREATMENT OF VIRAL DISEASES” (MERCK SHARP & DOHME CORP., priority 2016, published 2019).
pEC50: −log10 of the molar value. Like-named read-outs stand apart in the source and are kept apart here.

Legend:
[1] = Cytotoxicity assay in replicon cells (MTS, CellTiter 96); assay type: cell-based; conditions: three days post dosing, read-out: CC50 (EDU) Range
Method: (§1) DMSO at 0.5% and fetal bovine serum at 10% in the assay media. Cells are harvested three days post-dosing, and the replicon RNA level is determined using real-time RT-PCR (Taqman assay) with GAPDH RNA as endogenous control. EC50 values are calculated from experiments with 10 serial twofold dilutions of the inhibitor in triplicate. To measure cytotoxicity in replicon cells of an inhibitor, an MTS assay is performed according to the manufacturer's protocol for CellTiter 96 Aqueous One Solution Cell Proliferation Assay (Promega, Cat # G3580) three days post dosing on cells treated identically as in replicon activity assays. […] Cytotoxicity in other types of cells may be measured using the same MTS protocol.
(§2) Data were obtained using this method for selected compounds of the present invention, and are set forth below in Table 1.

replicon cells (1b-Con1) = assay: Replicon activity assay (cell-based anti-HCV activity, replicon RNA by real-time RT-PCR)
Method: To measure cell-based anti-HCV activity of the compounds of the present invention, replicon cells (1b-Con1) are seeded at 5000 cells/well in 96-well plates one day prior to treatment with a compound of the invention. Various concentrations of a test compound of the invention in DMSO are then added to the replicon cells, with the final concentration of
as §1, §2

replicon cells = assay: Cytotoxicity assay in replicon cells (MTS, CellTiter 96); assay type: cell-based; conditions: three days post dosing, read-out: CC50 (EDU) Range
Method: as §1, §2

[2] = Hepatitis C virus, 72 h, read-out: EC50 (1b) Range, replicon cells (1b-Con1), replicon RNA level three days post-dosing, GAPDH RNA as control
[3] = read-out: EC50 (1b) Range, replicon cells (1b-Con1), replicon RNA level three days post-dosing, GAPDH RNA as control

## CC(C)OC(=O)[C@H](C)CCOP1(=O)OC[C@H]2O[C@@H](n3ccc(N)nc3=O)C(F)(F)[C@@H]2O1 (single isomer, unassigned) [Compound 7 Diastereomer 1]
[1]
  CC50 at 3 days: ≤ 50 µM
Replicon cells (1b-Con1); [2]
  pEC50: 6.00 to 6.60

## CC(C)OC(=O)[C@H](C)CCOP1(=O)OC[C@H]2O[C@@H](n3ccc(N)nc3=O)C(F)(F)[C@@H]2O1 (single isomer, unassigned) [Compound 7 Diastereomer 2]
Replicon cells
  CC50: ≤ 50 µM
Replicon cells (1b-Con1); [3]
  pEC50: > 6.60

## CC(C)OC(=O)[C@@H](C)CCOP1(=O)OC[C@H]2O[C@@H](n3ccc(N)nc3=O)C(F)(F)[C@@H]2O1 (single isomer, unassigned) [Compound 8 Diastereomer 1]
[1]
  CC50 at 3 days: ≤ 50 µM
Replicon cells (1b-Con1); [2]
  pEC50: 6.00 to 6.60

## CC(C)OC(=O)[C@@H](C)CCOP1(=O)OC[C@H]2O[C@@H](n3ccc(N)nc3=O)C(F)(F)[C@@H]2O1 (single isomer, unassigned) [Compound 8 Diastereomer 2]
Replicon cells
  CC50: ≤ 50 µM
Replicon cells (1b-Con1); [3]
  pEC50: 6.00 to 6.60

## CCOC(=O)[C@@H](C)CCOP1(=O)OC[C@H]2O[C@@H](n3ccc(N)nc3=O)C(F)(F)[C@@H]2O1 (single isomer, unassigned) [Compound 9 Diastereomer 1]
[1]
  CC50 at 3 days: ≤ 50 µM
Replicon cells (1b-Con1); [2]
  pEC50: 6.00 to 6.60

## CCOC(=O)[C@@H](C)CCOP1(=O)OC[C@H]2O[C@@H](n3ccc(N)nc3=O)C(F)(F)[C@@H]2O1 (single isomer, unassigned) [Compound 9 Diastereomer 2]
Replicon cells
  CC50: ≤ 50 µM
Replicon cells (1b-Con1); [3]
  pEC50: 6.00 to 6.60

## CCOC(=O)[C@H](C)CCOP1(=O)OC[C@H]2O[C@@H](n3ccc(N)nc3=O)C(F)(F)[C@@H]2O1 (single isomer, unassigned) [Compound 10 Diastereomer 1]
[1]
  CC50 at 3 days: ≤ 50 µM
Replicon cells (1b-Con1); [2]
  pEC50: 6.00 to 6.60

## CCOC(=O)[C@H](C)CCOP1(=O)OC[C@H]2O[C@@H](n3ccc(N)nc3=O)C(F)(F)[C@@H]2O1 (single isomer, unassigned) [Compound 10 Diastereomer 2]
Replicon cells
  CC50: ≤ 50 µM
Replicon cells (1b-Con1); [3]
  pEC50: 6.00 to 6.60
